Biological target: peptide deformylase (EcPDF) (Escherichia coli, UniProt P0A6K3)
Assay: coupled colorimetric assay
Format: biochemical

Chain of peptide deformylase (EcPDF) (P0A6K3 2-169): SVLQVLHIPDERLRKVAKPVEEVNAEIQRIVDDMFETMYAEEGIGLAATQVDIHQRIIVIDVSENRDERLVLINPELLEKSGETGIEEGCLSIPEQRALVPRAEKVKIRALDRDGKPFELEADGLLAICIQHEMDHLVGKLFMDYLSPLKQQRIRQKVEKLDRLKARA

C/C=C/c1c(O)c(O)cc2c1[C@@](C)(NC(=O)/C=C/C(=O)O)C(=O)O2 (racemic) [compound 1, (±)-fumimycin]
% inhibition at 4 μM: ~ 20

CCCCC[C@H](CC(=O)NO)C(=O)N[C@H](C(=O)N1CCC[C@H]1CO)C(C)C [compound 2, actinonin]
inhibition at 4 µM (read-out: % inhibition at 4 μM): ~95%

Dimethoxy-fumimycin hydroxamic acid [17f]
% inhibition at 4 μM: ~ 20

Dimethoxy-fumimycin methyl ester [17b]
% inhibition at 4 μM: ~ 20

Fumimycin Weinreb amide [17h]
% inhibition at 4 μM: ~ 16
